pIC50: −log10 of the molar value.
Molecular target: Human Factor D (Homo sapiens (Human), UniProt P00746)
Experiment: Human Factor D Assay
Format: biochemical
Details: Table 6; Factor D 80 nM, substrate Z-L-Lys-SBz; read-out: IC50
Summary of the method: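 Thioester substrate Z-L-Lys-SBz (100 μM) with Ellman's reagent DTNB (100 μM) reports activity of 80 nM human serum-derived enzyme, kinetically at 405 nm over 30 min. Compound preincubated 5 min, room temperature, pH 7.5 Tris/1 M NaCl; IC50 by nonlinear fit of rates.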

Chain of Human Factor D (P00746 26-253): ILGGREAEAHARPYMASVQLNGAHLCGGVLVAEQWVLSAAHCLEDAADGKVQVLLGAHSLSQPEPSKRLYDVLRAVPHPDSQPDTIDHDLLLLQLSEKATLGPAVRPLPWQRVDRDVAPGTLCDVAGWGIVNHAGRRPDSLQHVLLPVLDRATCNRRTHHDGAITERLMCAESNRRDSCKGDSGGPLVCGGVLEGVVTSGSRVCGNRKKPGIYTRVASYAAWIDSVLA

Row | Compound | pIC50
1 | Cc1ncc(-c2ccc3c(c2)c(C(C)O)nn3CC(=O)N2[C@H](C(=O)Nc3nc(Br)ccc3C)C[C@@]3(C)C[C@@H]23)cn1 (stereo partly drawn) [Compound 72, (1R,3S,5R)-N-(6-bromo-3-methylpyridin-2-yl)-2-(2-(3-(1-hydroxyethyl)-5-(2-methylpyrimidin-5-yl)-1H-indazol-1-yl)acetyl)-5-methyl-2-azabicyclo[3.1.0]hexane-3-carboxamide] | 5.00 to 6.00
2 | CC(=O)c1nn(CC(=O)N2[C@H](C(=O)Nc3nc(Br)cc4ccccc34)C[C@@]3(C)C[C@@H]23)c2ccc(-c3cnc(C)nc3)cc12 [Compound 73, (1R,3S,5R)-2-(2-(3-Acetyl-5-(2-methylpyrimidin-5-yl)-1H-indazol-1-yl)acetyl)-N-(3-bromoisoquinolin-1-yl)-5-methyl-2-azabicyclo[3.1.0]hexane-3-carboxamide] | > 6.00
3 | CC(=O)c1nn(CC(=O)N2[C@H](C(=O)Nc3nc(Br)ccc3C)C[C@@]3(CN(C)C)C[C@@H]23)c2c(CF)cc(-c3cnc(C)nc3)cc12 [Compound 74, (1R,3S,5R)-2-(2-(3-Acetyl-7-(fluoromethyl)-5-(2-methylpyrimidin-5-yl)-1H-indazol-1-yl)acetyl)-N-(6-bromo-3-methylpyridin-2-yl)-5-((dimethylamino)methyl)-2-azabicyclo[3.1.0]hexane-3-carboxamide] | > 6.00
4 | CC(=O)c1nn(CC(=O)N2[C@H]3C[C@@]3(CN(C)C)C[C@H]2C(=O)Nc2nc(Br)ccc2C)c2c(CF)cc(-c3cnc(C)nc3)cc12 [Compound 75, (1S,3S,5S)-2-(2-(3-Acetyl-7-(fluoromethyl)-5-(2-methylpyrimidin-5-yl)-1H-indazol-1-yl)acetyl)-N-(6-bromo-3-methylpyridin-2-yl)-5-((dimethylamino)methyl)-2-azabicyclo[3.1.0]hexane-3-carboxamide] | > 6.00
5 | CC(=O)c1nn(CC(=O)N2C[C@@](F)(CF)C[C@H]2C(=O)Nc2nc(Br)ccc2C)c2c(CF)cc(-c3cnc(C)nc3)cc12 [Compound 76, (2S,4R)-1-(2-(3-acetyl-7-(fluoromethyl)-5-(2-methylpyrimidin-5-yl)-1H-indazol-1-yl)acetyl)-N-(6-bromo-3-methylpyridin-2-yl)-4-fluoro-4-(fluoromethyl)pyrrolidine-2-carboxamide] | > 6.00
6 | CC(=O)c1nn(CC(=O)N2[C@H]3C[C@@]3(C)C[C@H]2C(=O)Nc2nc(Br)ccc2C)c2c(C(F)(F)F)cc(-c3cnc(C)nc3)cc12 [Compound 77, (1S,3S,5S)-2-(2-(3-acetyl-5-(2-methylpyrimidin-5-yl)-7-(trifluoromethyl)-1H-indazol-1-yl)acetyl)-N-(6-bromo-3-methylpyridin-2-yl)-5-methyl-2-azabicyclo[3.1.0]hexane-3-carboxamide] | < 5.00
7 | CC(=O)c1nn(CC(=O)N2[C@H](C(=O)Nc3nc(Br)ccc3C)C[C@@]3(CN4CCN(C(C)=O)CC4)C[C@@H]23)c2ccc(-c3cnc(C)nc3)cc12 [Compound 78, (1R,3S,5R)-2-(2-(3-acetyl-5-(2-methylpyrimidin-5-yl)-1H-indazol-1-yl)acetyl)-5-((4-acetylpiperazin-1-yl)methyl)-N-(6-bromo-3-methylpyridin-2-yl)-2-azabicyclo[3.1.0]hexane-3-carboxamide] | > 6.00
8 | CC(=O)c1nn(CC(=O)N2[C@H]3C[C@@]3(CN3CCN(C(C)=O)CC3)C[C@H]2C(=O)Nc2nc(Br)ccc2C)c2ccc(-c3cnc(C)nc3)cc12 [Compound 79, (1S,3S,5S)-2-(2-(3-acetyl-5-(2-methylpyrimidin-5-yl)-1H-indazol-1-yl)acetyl)-5-((4-acetylpiperazin-1-yl)methyl)-N-(6-bromo-3-methylpyridin-2-yl)-2-azabicyclo[3.1.0]hexane-3-carboxamide] | 5.00 to 6.00
9 | CC(=O)c1nn(CC(=O)N2[C@H](C(=O)NCCC(C)(C)C)C[C@@]3(C)C[C@@H]23)c2c(C)cc(-c3cnc(C)nc3)cc12 [Compound 80, (1R,3S,5R)-2-(2-(3-Acetyl-7-methyl-5-(2-methylpyrimidin-5-yl)-1H-indazol-1-yl)acetyl)-N-(3,3-dimethylbutyl)-5-methyl-2-azabicyclo[3.1.0]hexane-3-carboxamide] | > 6.00
10 | CC(=O)c1nn(CC(=O)N2[C@H](C(=O)NCCOC(F)(F)F)C[C@@]3(C)C[C@@H]23)c2c(C)cc(-c3cnc(C)nc3)cc12 [Compound 81, (1R,3S,5R)-2-(2-(3-Acetyl-7-methyl-5-(2-methylpyrimidin-5-yl)-1H-indazol-1-yl)acetyl)-5-methyl-N-(2-(trifluoromethoxy)ethyl)-2-azabicyclo[3.1.0]hexane-3-carboxamide] | > 6.00
11 | COc1cccc(NC(=O)[C@@H]2C[C@@]3(C)C[C@H]3N2C(=O)Cn2nc(C(C)=O)c3cc(-c4cnc(C)nc4)cc(C)c32)n1 [Compound 82, (1R,3S,5R)-2-(2-(3-Acetyl-7-methyl-5-(2-methylpyrimidin-5-yl)-1H-indazol-1-yl)acetyl)-N-(6-methoxypyridin-2-yl)-5-methyl-2-azabicyclo[3.1.0]hexane-3-carboxamide] | > 6.00
12 | CC(=O)c1nn(CC(=O)N2C[C@H](F)C[C@H]2C(=O)Nc2cccc(O)n2)c2ccc(-c3cnc(C)nc3)cc12 [Compound 83, (2S,4R)-1-(2-(3-Acetyl-5-(2-methylpyrimidin-5-yl)-1H-indazol-1-yl)acetyl)-4-fluoro-N-(6-hydroxypyridin-2-yl)pyrrolidine-2-carboxamide] | 5.00 to 6.00
13 | COCc1ccc(Br)c(NC(=O)[C@@H]2C[C@@]3(C)C[C@H]3N2C(=O)Cn2nc(C(C)=O)c3cc(-c4cnc(C)nc4)cc(COC)c32)n1 [Compound 86, (1R,3S,5R)-2-(2-(3-acetyl-7-(methoxymethyl)-5-(2-methylpyrimidin-5-yl)-1H-indazol-1-yl)acetyl)-N-(3-bromo-6-(methoxymethyl)pyridin-2-yl)-5-methyl-2-azabicyclo[3.1.0]hexane-3-carboxamide] | < 5.00
14 | CC(=O)c1nn(CC(=O)N2[C@H](C(=O)Nc3nc(Br)ccc3C)C[C@@]3(CN4CCNCC4)C[C@@H]23)c2c(C)cc(-c3cnc(C)nc3)cc12 [Compound 88, (1R,3S,5R)-2-(2-(3-Acetyl-7-methyl-5-(2-methylpyrimidin-5-yl)-1H-indazol-1-yl)acetyl)-N-(6-bromo-3-methylpyridin-2-yl)-5-(piperazin-1-ylmethyl)-2-azabicyclo[3.1.0]hexane-3-carboxamide] | > 6.00
15 | CC(=O)c1nn(CC(=O)N2[C@H](C(=O)Nc3nc(Br)ccc3C)C[C@@]3(CN4CC5(CCC5)C4)C[C@@H]23)c2c(C)cc(-c3cnc(C)nc3)cc12 [Compound 89, (1R,3S,5R)-5-(2-Azaspiro[3.3]heptan-2-ylmethyl)-2-(2-(3-acetyl-7-methyl-5-(2-methylpyrimidin-5-yl)-1H-indazol-1-yl)acetyl)-N-(6-bromo-3-methylpyridin-2-yl)-2-azabicyclo[3.1.0]hexane-3-carboxamide] | > 6.00
16 | CC(=O)c1nn(CC(=O)N2[C@H]3C[C@@]3(C)C[C@H]2C(=O)Nc2nc(Br)ccc2C)c2c(C3CC3)cc(-c3cnc(C)nc3)cc12 [Compound 90, (1S,3S,5S)-2-(2-(3-acetyl-7-cyclopropyl-5-(2-methylpyrimidin-5-yl)-1H-indazol-1-yl)acetyl)-N-(6-bromo-3-methylpyridin-2-yl)-5-methyl-2-azabicyclo[3.1.0]hexane-3-carboxamide] | > 6.00
17 | CC(=O)c1nn(CC(=O)N2[C@H](C(=O)Nc3nc(Br)ccc3CN(C)C)C[C@@]3(C)C[C@@H]23)c2ccc(-c3cnc(C)nc3)cc12 [Compound 91] | > 6.00
